{
  "source": "patent US9902986B2",
  "about": "“Enterobactin conjugates and uses thereof” (Massachusetts Institute of Technology, priority 2013, dated 2018)",
  "key": {"E. coli K-12": {"test_system": "E. coli K-12", "assay": "Antimicrobial activity assay, E. coli K-12", "assay_type": "cell-based, Escherichia coli", "conditions": "inhibition attributed to iron deprivation", "experimental": "(§1) Overnight cultures of the bacterial strains were prepared by inoculating 5 mL of LB with the bacterial freezer stocks and the cultures were incubated at 37° C. in a tabletop incubator shaker set at 150 rpm. The overnight culture grew to saturation and was diluted 1:100 into 5 mL of fresh LB medium containing DP (200 μM) and incubated at 37° C. with shaking at 150 rpm until OD600 reached 0.6. The cultures were subsequently diluted to an OD600 value of 0.001 in 50% MHB medium (11.5 g/L) with or without DP (200 μM). No antibiotic marker was included in these cultures. A 90-μL aliquot of the diluted culture was combined with a 10-μL aliquot of a 10× solution of the tested compounds in a 96-well plate, which was wrapped in […] and incubated at 30° C. with shaking at 150 rpm for 19 h. Bacterial growth was determined by measuring OD600 using a BIOTEK SYNERGY HT plate reader. Each well condition was prepared in duplicate, and at least three independent replicates were conducted on different days. The resulting mean OD600 are reported and the error bars are the standard deviation.\nIn an exemplary experiment, antibacterial activities of the conjugates were tested against E. coli K-12 in 50% MHB at 30° C., t=19 h. 2,2′-dipyridyl (DP, 200 μM) was added to provide conditions of iron limitation."}, "E. coli CFT073 [1]": {"test_system": "E. coli CFT073", "assay": "Competition assay with native siderophores, E. coli CFT073", "assay_type": "cell-based, Escherichia coli", "conditions": "conjugate 100 nM, varied Ent, MGE or DGE, 50% MHB, 200 μM DP, 30° C., t=19 h", "experimental": "These assays were performed following the general procedure described herein except that varying concentrations of Ent, MGE, or DGE, each of which was unmodified, were mixed with Ent-Amp, Ent-Amx, MGE-Amp, MGE-Amx, DGE-Amp, or DGE-Amx. Ent was synthesized following a literature procedure^55 and stored as DMSO stock solution at −20° C. MGE and DGE were prepared from Ent using MceC and IroB as described for MGE-PEG3-N3 and DGE-PEG3-N3.\nIn another exemplary experiment, select conjugates (Ent-Amp, MGE-Amp, and DGE-Amp) with select native siderophores (Ent, MGE, and DGE) were tested against the uropathogenic strain E. coli CFT073 in 50% MHB, t=19 h, 30° C. 2,2′-dipyridyl (DP, 200 μM) was added to provide conditions of iron limitation. The concentration of the conjugates was fixed at 100 nM and the concentration of the native siderophores was varied.\nIn another exemplary experiment, select conjugates (Ent-Amx, MGE-Amx, and DGE-Amx) with select native siderophores (Ent, MGE, and DGE) were tested against the uropathogenic strain E. coli CFT073 in 50% MHB, t=19 h, 30° C. DP (200 μM) was added to provide conditions of iron limitation. The concentration of the conjugates was fixed at 100 nM and the concentration of the native siderophores was varied."}, "[2]": {"test_system": "Salmonella enterica serovar Typhimurium (STM) IR715", "assay": "Antibacterial activity assay, Salmonella Typhimurium", "assay_type": "cell-based", "conditions": "50% MHB, 100 μM 2,2′-dipyridyl, 30° C., t=19 h", "experimental": "FIGS. 12A and 12B show exemplary antibacterial activities of Ent-Amp, Ent-Amx, MGE-Amp, MGE-Amx, DGE-Amp, and DGE-Amx against Salmonella enterica serovar Typhimurium (STM) IR715 (50% MHB with 100 μM 2,2′-dipyridyl to provide conditions of iron limitation, 30° C., t=19 h). (FIG. 12A) Antibacterial activity of Amp and the Amp-containing conjugates (Ent-Amp, MGE-Amp, and DGE-Amp). […] (FIG. 12B) Antibacterial activity of Amx and the Amx-containing conjugates (Ent-Amx, MGE-Amx, and DGE-Amx)."}, "E. coli CFT073 [3]": {"test_system": "E. coli CFT073", "assay": "Antimicrobial activity assay in the presence of lipocalin 2", "assay_type": "cell-based, Escherichia coli", "conditions": "conjugate 100 nM, lcn2 1 μM, M9 minimal media, 37° C., 24 h", "experimental": "The bacterial cultures were grown in modified M9 minimal medium (Blango, M. G.; Ott, E. M.; Erman, A.; Veranic, P.; Mulvey, M. A. Forced Resurgence and Targeting of Intracellular Uropathogenic Escherichia coli Reservoirs. PLoS One 2014, 9, e93327-e93335) (Na2HPO4 6.8 g/L, KH2PO4 3 g/L, NaCl 0.5 g/L, NH4Cl 1 g/L, 0.4% glucose, 2 mM MgSO4, 0.1 mM CaCl2, 0.2% casein amino acids, and 16.5 μg/mL of thiamine) overnight. […] The cultures were serially diluted to an OD600 value of 0.00001 in fresh modified M9 minimal medium. Lipocalin 2 (Lcn2) was diluted into PBS buffer to a concentration of 20 μM upon arrival and frozen at −20° C. until use. Bovine serum albumin (BSA, Sigma-Aldrich) was prepared in PBS buffer to achieve a concentration of 20 μM. […] The bacterial growth was determined by measuring OD600 using the plate reader. […] The resulting mean OD600 was reported, and the error bars were the standard deviation. […] In contrast, Lcn2 had no effect of the antibacterial activity of MGE-Amp, MGE-Amx, DGE-Amp, or DGE-Amx."}, "[4]": {"test_system": "uropathogenic E. coli and non-pathogenic E. coli", "assay": "Mixed culture assays (summary), uropathogenic and non-pathogenic E. coli", "assay_type": "cell-based, Escherichia coli", "conditions": "uropathogenic with non-pathogenic E. coli", "description": "No antibiotic marker was included in these cultures."}, "E. coli CFT073 [5]": {"test_system": "E. coli CFT073", "assay": "Antimicrobial activity assay, E. coli CFT073", "assay_type": "cell-based, Escherichia coli", "conditions": "Fe(III)-loaded versus apo conjugates, 50% MHB, 200 μM DP, 30° C., t=19 h", "experimental": "as §1\nIn another exemplary experiment, antibacterial activities of the conjugates were tested against E. coli CFT073 in 50% MHB at 30° C., t=19 h. DP (200 μM) was added to provide conditions of iron limitation.\nIn another exemplary experiment, antibacterial activities of Fe(III)-loaded or apo Ent-β-lactam conjugates (Ent-Amp and Ent-Amx) and their glucosylated derivatives (MGE-Amp, MGE-Amx, DGE-Amp, and DGE-Amx) against the uropathogenic strain E. coli CFT073 were tested in 50% MHB, 30° C., t=19 h. 2,2′-dipyridyl (DP, 200 μM) was added to provide conditions of iron limitation."}, "E. coli UTI89": {"test_system": "E. coli UTI89", "assay": "Competition assay with native siderophores, E. coli UTI89", "assay_type": "cell-based, Escherichia coli", "conditions": "conjugate 100 nM, varied Ent, MGE or DGE, 50% MHB, 200 μM DP, 30° C., t=19 h", "experimental": "Ent was synthesized following a literature procedure^55 and stored as DMSO stock solution at −20° C. MGE and DGE were prepared from Ent using MceC and IroB as described for MGE-PEG3-N3 and DGE-PEG3-N3.\nIn an exemplary experiment, select conjugates (Ent-Amp, MGE-Amp, and DGE-Amp) with select native siderophores (Ent, MGE, and DGE) were tested against the uropathogenic strain E. coli UTI89 in 50% MHB, t=19 h, 30° C. […] The concentration of the conjugates was fixed at 100 nM, and the concentration of the native siderophores was varied. […] These observations indicate that Ent, MGE, Ent-Amp, and MGE-Amp may enter via both FepA and IroN with different efficiency, but DGE and DGE-Amp may only enter via IroN.\nIn another exemplary experiment, select conjugates (Ent-Amp, MGE-Amp, and DGE-Amp) with select native siderophores (Ent, MGE, and DGE) were tested against the uropathogenic strain E. coli UTI89 in 50% MHB, t=19 h, 30° C. […] The concentration of the conjugates was fixed at 100 nM and the concentration of the native siderophores was varied. […] These observations indicate that Ent, MGE, Ent-Amp, and MGE-Amp may enter via both FepA and IroN with different efficiency, but DGE and DGE-Amp may only enter via IroN."}, "various E. coli strains": {"test_system": "various E. coli strains", "assay": "Antibacterial activity against a panel of E. coli strains", "assay_type": "cell-based, Escherichia coli", "conditions": "6 strains of E. coli (K-12, B, H9049, 25922, UTI89, CFT073)", "experimental": "as §1\nAmpicillin and amoxicillin are β-lactam antibiotics that have periplasmic targets in Gram-negative bacteria and inhibit cell wall biosynthesis. The antibacterial activity of Ent-ampicillin and Ent-amoxicillin conjugates 44 and 45 was evaluated in vitro against a panel of Gram-negative and positive-bacteria.\nSelect Ent-β-lactam conjugates (Ent-Amp and Ent-Amx) and their glucosylated derivatives (MGE-Amp, MGE-Amx, DGE-Amp, and DGE-Amx) were tested against 6 strains of E. coli. Four of them are non-pathogenic strains, namely K-12, B, H9049, and 25922, and the other two are uropathogenic clinical isolates, namely UTI89 and CFT073."}},
  "note": "“Also recorded” adds a separate entry of the source.",
  "data": [
    {"smiles": "CC1(C)SC2C(NC(=O)C(NC(=O)CCCc3cn(CCOCCOCCOCCNC(=O)c4cc(O)c(O)c(C(=O)NC5COC(=O)C(NC(=O)c6cc(C7OC(CO)C(O)C(O)C7O)cc(O)c6O)COC(=O)C(NC(=O)c6cc(C7OC(CO)C(O)C(O)C7O)cc(O)c6O)COC5=O)c4)nn3)c3ccc(O)cc3)C(=O)N2C1C(=O)O", "note": "(stereo not shown) [DGE-Amx]", "values": [
      {"measurement": "concentrations at which E. coli K-12 was inhibited", "setting": "E. coli K-12", "result": "micromolar concentrations"},
      {"measurement": "attenuation of antibacterial activity by native siderophores", "setting": "E. coli CFT073 [1]", "result": "attenuated by Ent, MGE, or DGE"},
      {"measurement": "antibacterial activity relative to the unmodified antibiotic", "setting": "[2]", "result": "enhanced antibacterial activity relative to unmodified Amx"},
      {"measurement": "effect of lipocalin-2 (lcn2) on antibacterial activity", "setting": "E. coli CFT073 [3]", "result": "unaffected; also recorded: no effect; also recorded: not attenuated"},
      {"measurement": "strain-specific growth inhibition in the mixed culture assays", "setting": "[4]", "result": "specifically inhibited the growth of the uropathogenic E. coli"},
      {"measurement": "effect of preloading Fe(III) on antibacterial activity", "setting": "E. coli CFT073 [5]", "result": "no effect"},
      {"measurement": "attenuation of antibacterial activity by native siderophores", "setting": "E. coli UTI89", "result": "attenuated by Ent, MGE, or DGE"},
      {"measurement": "antibacterial activity against uropathogenic compared to non-pathogenic E. coli", "setting": "various E. coli strains", "result": "greater antibacterial activity against the uropathogenic E. coli compared to non-pathogenic E. coli"}
    ]},
    {"smiles": "CC1(C)SC2C(NC(=O)C(NC(=O)CCCc3cn(CCOCCOCCOCCNC(=O)c4cc(O)c(O)c(C(=O)NC5COC(=O)C(NC(=O)c6cc(C7OC(CO)C(O)C(O)C7O)cc(O)c6O)COC(=O)C(NC(=O)c6cccc(O)c6O)COC5=O)c4)nn3)c3ccc(O)cc3)C(=O)N2C1C(=O)O", "note": "(stereo not shown) [MGE-Amx]", "values": [
      {"measurement": "concentrations at which E. coli K-12 was inhibited", "setting": "E. coli K-12", "result": "micromolar concentrations"},
      {"measurement": "attenuation of antibacterial activity by native siderophores", "setting": "E. coli CFT073 [1]", "result": "attenuated by Ent, MGE, or DGE"},
      {"measurement": "antibacterial activity relative to the unmodified antibiotic", "setting": "[2]", "result": "enhanced antibacterial activity relative to unmodified Amx"},
      {"measurement": "effect of lipocalin-2 (lcn2) on antibacterial activity", "setting": "E. coli CFT073 [3]", "result": "unaffected; also recorded: no effect; also recorded: not attenuated"},
      {"measurement": "strain-specific growth inhibition in the mixed culture assays", "setting": "[4]", "result": "specifically inhibited the growth of the uropathogenic E. coli"},
      {"measurement": "effect of preloading Fe(III) on antibacterial activity", "setting": "E. coli CFT073 [5]", "result": "no effect"},
      {"measurement": "attenuation of antibacterial activity by native siderophores", "setting": "E. coli UTI89", "result": "attenuated by Ent, MGE, or DGE"},
      {"measurement": "antibacterial activity against uropathogenic compared to non-pathogenic E. coli", "setting": "various E. coli strains", "result": "greater antibacterial activity against the uropathogenic E. coli compared to non-pathogenic E. coli"}
    ]}
  ]
}
